Test results published in patent publication US4062958A, “Method of treating anxiety and compositions therefor” (American Cyanamid Company, priority 1976, dated 1977).

Key:
[1] = system: clonic seizures caused by pentylenetetrazole; test: Protection against clonic seizures caused by pentylenetetrazole in rats; format: in vivo; settings: Rattus norvegicus, oral, 2% starch vehicle, groups of at least 5, pentylenetetrazole 21 to 23 mg./kg. i.v. at estimated time of peak effect, read-out: Medium Effective Oral Dose ED50, protection against clonic seizures caused by pentylenetetrazole
Protocol: The anti-anxiety properties of the active compound of the present invention has been established in a test which indicates anxiolytic activity by the measure of protection from convulsions resulting from the administration of pentylenetetrazole. Graded dose levels of the compound of this invention were administered orally, in a 2% starch vehicle, to groups of at least 5 rats. At the estimated time of peak effect, the rats were treated intravenously with pentylenetetrazole at a dose of 21 to 23 mg./kg. of body weight. This dose is estimated to cause clonic seizures in 99% of unprotected rats. The effective dose (ED50) of the test compound for protection of 50% of the animals is calculated by the method of D. H. Finney in "Statistical Methods in Biological Assay", Second Edition, Hafner Publishing Co., New York, 1964, pp. 456-457. Representative results are given in the table which follows in comparison with chlordiazepoxide and meprobamate, which were tested in exactly the same manner. It has been reported [R. T. Hill and D. H. Tedeschi, "Animal Testing and Screening Procedures in Evaluating Psychotropic Drugs" in An Introduction of Psychopharmacology, Eds. R. R. Rech and K. E. Moore, Raven Press, New York, pp. 237-288 (1971)] that there is a high degree of correlation between antagonism of pentylenetetrazole seizures in rats and anti-anxiety effects in higher warm-blooded animals.

[2] = system: conflict situation induced in rats (number of shocks received); test: Non-conditioned passive avoidance (conflict) procedure in rats; format: in vivo; settings: Sprague-Dawley rats, positive = 9 or more shocks in 4 to 5 minutes; for ED50: Rattus norvegicus, oral, comparison drugs tested in exactly the same manner, read-out: median effective dose (ED50)
Protocol: Another test which has been used to assess anti-anxiety effects is a non-conditioned passive avoidance procedure described by J. R. Vogel, B. Beer and D. E. Clody, "A Simple and Reliable Conflict Procedure for Testing Anti-Anxiety Agents", Psychopharmacologia, Vol. 21, pp. 1-7 (1971). A conflict situation is induced in rats by a modification of this method. To groups of six naive Sprague-Dawley rats (200-220 grams), previously deprived of water for forty-eight hours and food for 24 hours, are administered graded oral doses of test compound suspended in 2% starch vehicle also containing 2 drops of polyethylene glycol and polysorbate 80, or vehicle alone (controls). At the time of peak effect each rat is placed in a plexiglass box fitted with a drinkometer circuit connected between the stainless steel grid floor and a stainless steel drinking tube inserted in a hole in one of the walls of the box. A stimulator supplying monophasic 60 cycle square wave pulses of 0.2 milliamperes peak intensity, a timer which allows alternate 5 second " shock free" and 5 second "shock available" periods during a 5 minute test period, an electromagnetic counter to count the number of shocks received by the rat during the shock available period and a delay of one half second between the successive shocks are incorporated into the drinkometer circuit. After the rat is placed in the box, it is allowed to explore and drink 10% dextrose solution supplied through the tap. After twenty seconds of continuous unpunished drinking, the timer and drinkometer circuits are activated and 5 second shock free and 5 second shock available periods alternate. The number of shocks received by the rat during a 5 minute test period is recorded. The percentage of rats that receive 9 or more shocks in 4 to 5 minutes at each dose level is used as positive response in calculation of the median effective dose (ED50). The estimated (ED50) for the compound 3-methyl-6-phenyl-1,2,4-triazolo[4,3-b]pyridazine after one hour from oral administration is 100 mg./kg.

Structure (SMILES) | ED50 [1] [mg/kg] | ED50 [2] [mg/kg] | estimated median effective dose (ED50) ([2]; one hour after oral administration) [mg/kg]
CNC1=Nc2ccc(Cl)cc2C(c2ccccc2)=[N+]([O-])C1 [Chlordiazepoxide] | 2.5 | 9.6 | –
Cc1nnc2ccc(-c3ccccc3)nn12 [3-methyl-6-phenyl-1,2,4-triazolo[4,3-b]pyridazine] | 3 | – | 100
CCCC(C)(COC(N)=O)COC(N)=O [Meprobamate] | 22 | 51.9 | –
